Among the data in publication PMC6792352, “Limited Chemical Structural Diversity Found to Modulate Thyroid Hormone Receptor in the Tox21 Chemical Library” (Environmental Health Perspectives, 2019) are CC50 values, retold here.

The series can be described thus: in vitro. The note with it: rat, gh3-tre-luc cells.

Structures can show the parent of a compound that is named as a salt.

In turn, `CC1(C)O[C@@H]2C[C@H]3[C@@H]4C[C@H](F)C5=CC(=O)C=C[C@]5(C)[C@@]4(F)[C@@H](O)C[C@]3(C)[C@]2(C(=O)CO)O1` [Fluocinolone acetonide] yielded a 50% cytotoxic concentration (CC50) at 24 h (AC50 (uM) modified / 1000) above 50 µM.
On the same count and under the same terms, with `CCOC(=O)COC(=O)c1ccccc1C(=O)OCC` [Ethyl phthalyl ethyl glycolate] the figure was above 90 µM.
With `COP(=S)(OC)Oc1c(Cl)cc(C)cc1Cl` [Tolclofos-methyl], the half-maximal cytotoxic concentration (CC50) at 24 h (AC50 (uM) modified / 1000, Tox21_110001=Tox21_301347, viability, 1 nM T3 present, 24 h) is above 90 µM.
For the setting “AC50 (uM) modified / 1000”, `O=C(Nc1ccc(F)cc1F)c1cccnc1Oc1cccc(C(F)(F)F)c1` [Diflufenican] yielded a 50% cytotoxic concentration (CC50) at 24 h above 100 µM.
On the same count and under the same terms, the result for `CO/N=C(/C1=NOCCO1)c1ccccc1Oc1ncnc(Oc2ccccc2Cl)c1F` [Fluoxastrobin] reads 32.7 µM; that for `CC(C)c1cc2c(cc1S(=O)(=O)O)[C@@]1(C)CCC[C@@](C)(C(=O)O)[C@@H]1CC2` [Ecabet], above 50 µM.
On the same count and under the same terms, with `CC(C)C(=O)OC(=O)C(C)C` [Isobutyric anhydride] the figure was above 90 µM; with `ON=CC=NO` [Glyoxime], above 90 µM; with `CCC(=O)c1ccc2c(c1)N(CCCN(C)C)c1ccccc1S2` [Propionylpromazine hydrochloride], 6.21 µM.
The same measure, in the same setting: with `COc1ccc(-n2nc(C(F)F)cc2-c2ccc([S+](C)[O-])cc2)cc1` (centres unmarked) [Difpas-pyrazole] the figure was above 90 µM; with `CC(C)OC(=O)Nc1cccc(Cl)c1` [Chlorpropham], above 90 µM.
`Cc1cc(C(=O)NCCc2ccc(S(=O)(=O)NC(=O)NN3CCCCCC3)cc2)no1` [Glisoxepide] returned a half-maximal cytotoxic concentration (CC50) at 24 h (AC50 (uM) modified / 1000) above 50 µM.
Turning to `O=C1CCC(c2ccc(-n3ccnc3)cc2)=NN1` [Imazodan], under “AC50 (uM) modified / 1000”, the CC50 at 24 h was above 50 µM.
On the same count and under the same terms, the result for `CCCCOC(=O)CCCCC(=O)OCCCC` [Dibutyl adipate] reads above 90 µM; that for `CCCC(=O)OCc1ccccc1` [Benzyl butyrate], above 90 µM; that for `O=C(O)COCC(=O)O` [Diglycolic acid], above 90 µM.
The same measure, in the same setting: with `CCCCCCCCCCCl` [1-Chlorodecane] the figure was above 90 µM; with `CC1=C(C(=O)Nc2ccccc2)SCCO1` [Carboxin], above 90 µM.
`CC12CCC(CC1)C(C)(C)O2` [1,8-Cineol]: for the setting “AC50 (uM) modified / 1000”, the CC50 at 24 h was above 90 µM.
Compound `CC(=O)N[C@H]1[C@H]([C@H](O)[C@H](O)CO)OC(C(=O)O)=C[C@@H]1N=C(N)N` [Zanamivir] displayed a CC50 at 24 h (AC50 (uM) modified / 1000) above 50 µM.
Where the note is “AC50 (uM) modified / 1000”, `O=C1OCCO1` [1,3-Dioxolan-2-one] came in with a CC50 at 24 h above 100 µM.
On to `O=C1C=CC(=O)N1c1ccccc1` [1-Phenyl-1H-pyrrole-2,5-dione], for which it took 5.48 µM to reach half-maximal cytotoxicity (AC50 (uM) modified / 1000) (CC50 at 24 h).
The compound `Cc1ccc(/C=N/n2c(-c3ccccc3)csc2=S)cc1` [Fezatione] gave a CC50 at 24 h (AC50 (uM) modified / 1000) above 50 µM.
In turn, `Clc1cc2c(cc1Cl)Oc1cc(Cl)c(Cl)cc1O2` [2,3,7,8-Tetrachlorodibenzo-p-dioxin] returned a cytotoxic concentration (CC50) at 24 h (AC50 (uM) modified / 1000, Tox21_110001=Tox21_202792, viability, 1 nM T3 present, 24 h) above 0.3 µM.
Compound `C=CC(=C)CC/C=C(\C)CC/C=C(/C)C=O` [Orange terpenes] came in with a CC50 at 24 h (AC50 (uM) modified / 1000) of 42.9 µM.
On the same count and under the same terms, the result for `CN(C)/C=N/c1c(I)cc(I)c(CCC(=O)O)c1I` [Ipodate sodium] reads above 50 µM.
As to `CC1(C)S[C@@H]2[C@H](NC(=O)[C@H](N)c3ccccc3)C(=O)N2[C@H]1C(=O)O` [Ampicillin trihydrate], under “AC50 (uM) modified / 1000”, the CC50 at 24 h was above 90 µM.
The same measure, in the same setting: with `C1CCN2C[C@@H]3C[C@@H](CN4CCCC[C@@H]34)[C@H]2C1` [Sparteine] the figure was above 20 µM; with `Nc1nc(-c2ccc([N+](=O)[O-])cc2)cs1` [2-Amino-4-(p-nitrophenyl)thiazole], above 90 µM; with `CN(C)c1ccc(C2(c3ccc(N(C)C)cc3)OC(=O)c3cc(N(C)C)ccc32)cc1` [Crystal Violet lactone], above 90 µM.
Same read-out and setting: the result for `COc1cc(C(=O)NC2CCN(C)CC2)ccc1Nc1ncc2c(n1)N(C1CCCC1)CC(F)(F)C(=O)N2C` [PharmaGSID_48511] reads 1.83 µM; that for `CCCCCCCCN1CCCC1=O` [1-Octyl-2-pyrrolidone], above 90 µM; that for `Fc1ccc([C@@]2(Cn3cncn3)O[C@@H]2c2ccccc2Cl)cc1` (racemic) [Epoxiconazole], above 90 µM.
Same read-out and setting: with `OCC(O)CO` [Glycerol] the figure was above 90 µM.
In turn, `CC(C)(O)CCCC1=CCC(C=O)CC1` (centres unmarked) [4-(4-Hydroxy-4-methylpentyl)cyclohex-3-ene-1-carbaldehyde] yielded a CC50 at 24 h (AC50 (uM) modified / 1000) above 100 µM.
The same measure, in the same setting: the result for `CCCCc1ccc(Cl)cc1` [4-Butylchlorobenzene] reads above 90 µM; that for `CCCCCNCCCCC` [Dipentylamine], above 90 µM; that for `C=C(C)C(=O)OCCOC(=O)CC(C)=O` [2-[Methacryloyloxy]ethyl acetoacetate], above 90 µM.
Regarding `C=C1C(=O)O[C@H]2[C@H]1CC/C(C)=C/CC[C@@]1(C)O[C@@H]21` [Parthenolide], the CC50 at 24 h (AC50 (uM) modified / 1000) is 13.8 µM.
Same read-out and setting: with `CC(C)C1(C)N=C(c2ncccc2C(=O)O)NC1=O` (centres unmarked) [Imazapyr] the figure was above 90 µM; with `O=C(O)c1ccccc1O` [Sodium salicylate], above 90 µM; with `C[CH2][Ge]([Cl])([CH2]C)[CH2]C` [Triethylgermanium chloride], above 90 µM.
Under “AC50 (uM) modified / 1000, Tox21_110001=Tox21_202245, viability, 1 nM T3 present, 24 h”, `OCCCCO` [1,4-Butanediol] showed a half-maximal cytotoxic concentration (CC50) at 24 h above 90 µM.
For the setting “AC50 (uM) modified / 1000”, `CCCCOC(=O)CC#N` [Butyl cyanoacetate] gave a CC50 at 24 h above 100 µM.
Where the note is “AC50 (uM) modified / 1000”, `CCC(C)OC(=O)N1CCCCC1CCO` (centres unmarked) [Icaridin] yielded a CC50 at 24 h above 90 µM.
Same read-out and setting: with `CCCCCCCCCCCCCCC[C@H](O)[C@@H](N)CO` [Safingol] the figure was above 50 µM.
With `CCOC(=O)COc1cc(-c2nn(C)c(OC(F)F)c2Cl)c(F)cc1Cl` [Pyraflufen-ethyl], the half-maximal cytotoxic concentration (CC50) at 24 h (AC50 (uM) modified / 1000, Tox21_110001=Tox21_300698, viability, 1 nM T3 present, 24 h) is above 90 µM.
As to `CCO[Si](CCCSSSSCCC[Si](OCC)(OCC)OCC)(OCC)OCC` [4,4,15,15-Tetraethoxy-3,16-dioxa-8,9,10,11-tetrathia-4,15-disilaoctadecane], the CC50 at 24 h (AC50 (uM) modified / 1000) was 70.3 µM.
Take `CN(CC1(C)CCCO1)S(=O)(=O)c1ccc(Cl)c(S(N)(=O)=O)c1` (centres unmarked) [Mefruside]: the 50% cytotoxic concentration (CC50) at 24 h (AC50 (uM) modified / 1000) is above 50 µM.
Still for that read-out and setting: with `Cc1ncc([N+](=O)[O-])n1C` [1,2-Dimethyl-5-nitroimidazole] the figure was above 90 µM.
Same read-out and setting: the result for `CCCNC(C)C(=O)Nc1c(C)csc1C(=O)OC` (centres unmarked) [Articaine hydrochloride] reads above 20 µM; that for `CCCCCc1ccco1` [2-Pentylfuran], above 60 µM.
Same read-out and setting: the result for `NC(=O)Cc1cccc(C(=O)c2ccccc2)c1N` [Nepafenac] reads above 50 µM.
For the setting “AC50 (uM) modified / 1000”, `C=CCC=CC` [1,4-Hexadiene] came in with a CC50 at 24 h above 90 µM.
Still for that read-out and setting: the result for `NC(=O)[C@H]1O[C@@H](O)[C@H](O)[C@@H](O)[C@@H]1O` [Glucuronamide] reads above 50 µM; that for `C=CCCCCCCCCCCC` [1-Tridecene], above 5 µM.
The same measure, in the same setting: the result for `Cc1c(N)cccc1N` [2,6-Toluenediamine] reads above 90 µM.
Same read-out and setting: the result for `CCCCOC(=O)CCCCCCCCC(=O)OCCCC` [Dibutyl decanedioate] reads above 90 µM.
For the compound `CC(=O)/C=C/c1ccc2c(c1)OCO2` [Piperonal acetone], the half-maximal cytotoxic concentration (CC50) at 24 h (AC50 (uM) modified / 1000, Tox21_110001=Tox21_202464, viability, 1 nM T3 present, 24 h) was determined as 57.5 µM.
For the setting “AC50 (uM) modified / 1000”, `CN1CCN(c2c(F)cc3c(=O)c(C(=O)O)cn4c3c2OCN4C)CC1` [Marbofloxacin] yielded a CC50 at 24 h above 50 µM.
Compound `CCCOC(=O)c1ccccc1O` [Propyl salicylate] showed a CC50 at 24 h (AC50 (uM) modified / 1000) above 50 µM.
The same measure, in the same setting: with `O=C(N[C@@H](c1ccccc1)[C@@H]1CCCCN1)c1cccc(C(F)(F)F)c1Cl` [SSR504734] the figure was 19.9 µM.
`c1ccc2c(c1)sc1ccccc12` [Dibenzothiophene]: the CC50 at 24 h was above 50 µM (AC50 (uM) modified / 1000, Tox21_110001=Tox21_111308, viability, 1 nM T3 present, 24 h) and above 90 µM (AC50 (uM) modified / 1000, Tox21_110001=Tox21_303415, viability, 1 nM T3 present, 24 h).
With `CNC(=O)O/N=C(\SC)C(=O)N(C)C` [Oxamyl], the 50% cytotoxic concentration (CC50) at 24 h was above 100 µM (AC50 (uM) modified / 1000, Tox21_110001=Tox21_201731, viability, 1 nM T3 present, 24 h) and above 90 µM (AC50 (uM) modified / 1000, Tox21_110001=Tox21_301156, viability, 1 nM T3 present, 24 h).
In the case of `CC(C)(O)C(=O)c1ccccc1` [2-Hydroxy-2-methylpropiophenone], under “AC50 (uM) modified / 1000”, the 50% cytotoxic concentration (CC50) at 24 h was above 90 µM.
On the same count and under the same terms, the result for `CCCC(=O)C(=O)O` [2-Oxopentanoic acid] reads above 90 µM; that for `Nc1cccc(C(F)(F)F)c1` [3-(Trifluoromethyl)aniline], above 90 µM; that for `CC(=O)OCCC(C)CC(C)(C)C` (centres unmarked) [3,5,5-Trimethylhexyl acetate], above 90 µM.
The same measure, in the same setting: with `C=C(C)C(=O)OCCCCCCCCCC` [Decyl methacrylate] the figure was above 90 µM; with `FC(F)(F)c1ccc(Cl)cc1Cl` [2,4-Dichlorobenzotrifluoride], above 90 µM.
On the same count and under the same terms, with `C=C1CC[C@H](O)C/C1=C/C=C1\CCC[C@]2(C)[C@@H]([C@H](C)CCCC(C)(C)O)CC[C@@H]12` [Calcifediol] the figure was 11.5 µM.
For the setting “AC50 (uM) modified / 1000”, `CC1CCC(CO)CC1` (centres unmarked) [4-Methylcyclohexanemethanol] had a cytotoxic concentration (CC50) at 24 h above 90 µM.
Same read-out and setting: with `Cc1ccc(N(CCO)CCO)cc1` [2,2'-[(4-Methylphenyl)imino]diethanol] the figure was above 90 µM.
Turning to `CCCOC(=O)Cc1ccc(OCC(=O)N(CC)CC)c(OC)c1` [Propanidid], the cytotoxic concentration (CC50) at 24 h (AC50 (uM) modified / 1000, Tox21_110001=Tox21_113307, viability, 1 nM T3 present, 24 h) was above 50 µM.
Consider `CCCCCCCCC(=O)O` [Nonanoic acid], for which, where the note is “AC50 (uM) modified / 1000”, the CC50 at 24 h was above 90 µM.
